Data on 1 molecule can be found in patent US20230210864A1, “AGENT FOR PROMOTING CORNEAL ENDOTHELIAL CELL ADHESION” (Senju Pharmaceutical Co., Ltd., priority 2007, published 2023).

The test system of the test is monkey corneal endothelial cells. As to the kind of experiment: Adhesion of cultured monkey corneal endothelial cells with fasudil, CellTiter-Glo Luminescent Cell Viability Assay. Type of test: cell-based, Macaca fascicularis. Conditions: fasudil 10 μM, passage-cultured cells. The protocol:
From the corneal tissue isolated from Macaca fascicularis euthanized, Descemet's membrane with corneal endothelial cells attached thereto was separated. The Descemet's membrane was incubated together with Dispase II (1.2 U/ml, Roche Applied Science) under the conditions of 37° C., 5% CO2 for 45 min, and the corneal endothelial cells were mechanically separated by a pipetting operation. The separated corneal endothelial cells were centrifuged and passage-cultured in a medium for corneal endothelium. As the medium for corneal endothelium, the same cell culture medium as in Example 1 was used. The cultured monkey corneal endothelial cells collected during the passage culture by a 0.05% trypsin treatment were separated and centrifuged, and stirred to the same concentration in a medium for corneal endothelium added with fasudil (10 μM, SIGMA-ALDRICH) in the fasudil group and in a medium for corneal endothelium without addition of fasudil in the control group, and the cells were seeded on a 96 well plate at a density of about 2000 cells per well. At 24 hr from the start of the culture, the adhered cells were counted using CellTiter-Glo (registered trade mark) Luminescent Cell Viability Assay (Promega) (FIG. 17).

Turning to `O=S(=O)(c1cccc2cnccc12)N1CCCNCC1` [fasudil, 1-(5-isoquinolinesulfonyl)homopiperazine], the “cell adhesion of corneal endothelial cells at 24 hr, compared to control group” value is “effect of promoted cell adhesion of the corneal endothelial cells was also found”.
